{"source": "paper PMC3237771", "about": "(Biomacromolecules, 2011)", "origin": "cited, not measured here", "conditions": "aqueous buffer; no reference given", "data": [{"smiles": "N=c1c[n+](N2CCOCC2)[n-]o1", "note": "[SIN-1, 3-morpholinosydnonimine]", "values": [{"measurement": "Half-life in aqueous environments", "value": "< 10", "unit": "h"}]}]}
